Assay results: patent US10011610B2, “Selective BACE1 inhibitors” (Eli Lilly and Company, priority 2015, dated 2018)
Where two headings read alike, the source gives them in different places.

Experiments:
[1] = molecular target: T1, human BACE1(1-460):Fc (Homo sapiens, UniProt P56817); test: BACE1 FRET Assay; assay type: biochemical; settings: purified recombinant huBACE1:Fc, mean±standard deviation of the mean, n=4
T1 construct: made in house; host or cells: HEK293 (transient transfection, purified from conditioned media by Protein A)
Procedure: (§1) To assess selectivity of BACE1 over BACE2, the test compound is evaluated in FRET and immunoassay detection base enzymatic assays using specific substrates for BACE1 and BACE2 as described below. For in vitro enzymatic and cellular assays, the test compound is prepared in DMSO to make up a 10 mM stock solution. The stock solution is serially diluted in DMSO to obtain a ten-point dilution curve with final compound concentrations ranging from 10 μM to 0.05 nM in a 96-well round-bottom plate before conducting the in vitro enzymatic and whole cell assays.
(§2) Human BACE1 (accession number: AF190725) and human BACE2 (accession number: AF 204944) are cloned from total brain cDNA by RT-PCR. The nucleotide sequences corresponding to amino acid sequences #1 to 460 are inserted into the cDNA encoding human IgG1 (Fc) polypeptide (Vassar et al., Science, 286, 735-742 (1999)). […]
(§3) Conditioned media of HEK293 cells transiently transfected with huBACE1:Fc or huBACE2:Fc cDNA are collected. […] The purity of final product is assessed by electrophoresis in 4-20% Tris-Glycine SDS-PAGE. […]
Serial dilutions of the test compound are prepared as described above. […] The RFU of the mixture at time 0 is recorded at excitation wavelength 355 nm and emission wavelength 460 nm, after brief mixing on a plate shaker. […] The RFU at the end of incubation is recorded with the same excitation and emission settings used at time 0. […]

[2] = system: Abeta 1-x peptide levels in brain; test: In Vivo Inhibition of Beta-Secretase (brain Abeta 1-x in PDAPP mice); settings: p<0.01; for reduction of Abeta 1-x peptide levels in brain hippocampus: young female PDAPP mice; for reduction of Abeta 1-x levels in brain cortical tissue: PDAPP mice, compared to vehicle-treated mice three hours after dosing
From the text: Several animal models, including mouse, guinea pig, dog, and monkey, may be used to screen for inhibition of beta-secretase activity in vivo following compound treatment. Animals used in this invention can be wild type, transgenic, or gene knockout animals. For example, the PDAPP mouse model, prepared as described in Games et al., Nature 373, 523-527 (1995), and other non-transgenic or gene knockout animals are useful to analyze in vivo inhibition of Abeta and sAPPbeta production in the presence of inhibitory compounds. Generally, 2 month old PDAPP mice, gene knockout mice or non-transgenic animals are administered compound formulated in vehicles, such as corn oil, beta-cyclodextran, phosphate buffers, PHARMASOLVE®, or other suitable vehicles via oral, subcutaneous, intra-venous, feeding, or other route of administration. 1 to 24 hours following the administration of compound, animals are sacrificed, and brains are removed for analysis of Abeta 1-x. “Abeta 1-x” as used herein refers to the sum of Abeta species that begin with residue 1 and end with a C-terminus greater than residue 28. This detects the majority of Abeta species and is often called “total Abeta”. Total Abeta peptides (Abeta 1-x) levels are measured by a sandwich ELISA, using monoclonal 266 as a capture antibody and biotinylated 3D6 as reporting antibody. (See May, et al., Journal of Neuroscience, 31, 16507-16516 (2011)).
For acute studies, compound or appropriate vehicle is administered and animals are sacrificed at about 3 hours after dosing. Brain tissue, is obtained from selected animals and analyzed for the presence of Abeta 1-x. After chronic dosing brain tissues of older APP transgenic animals may also be analyzed for the amount of beta-amyloid plaques following compound treatment.
For example, a 0.1, 0.3, and 1 mg/kg oral dose of Example 1, to young female PDAPP mice reduced Abeta 1-x peptide levels in brain hippocampus by 32%, 40%, and 55% (all values p<0.01), respectively.

[3] = molecular target: T2, human BACE2 (1-460):Fc (Homo sapiens, UniProt Q9Y5Z0); test: BACE2 MBP-C125Swe Assay; assay type: biochemical
T2 construct: made in house; host or cells: HEK293 (transient transfection, purified from conditioned media by Protein A)
T2 sequence (Q9Y5Z0 21-460): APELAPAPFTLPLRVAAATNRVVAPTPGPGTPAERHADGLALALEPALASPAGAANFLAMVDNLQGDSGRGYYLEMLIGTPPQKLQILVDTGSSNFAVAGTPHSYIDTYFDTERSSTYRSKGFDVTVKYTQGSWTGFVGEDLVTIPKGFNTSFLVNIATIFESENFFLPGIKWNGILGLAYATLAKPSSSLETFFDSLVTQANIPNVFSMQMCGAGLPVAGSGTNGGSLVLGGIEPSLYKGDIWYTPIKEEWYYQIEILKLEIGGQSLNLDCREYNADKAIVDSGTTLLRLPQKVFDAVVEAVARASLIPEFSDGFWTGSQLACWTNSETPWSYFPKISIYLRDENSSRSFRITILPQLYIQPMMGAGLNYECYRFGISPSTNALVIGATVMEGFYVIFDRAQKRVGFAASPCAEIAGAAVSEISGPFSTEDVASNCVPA
Procedure: as §1
as §2, with “(1999)). This fusion protein of BACE1(1-460) or BACE2(1-460) and human Fc, named huBACE1:Fc and huBACE2:Fc respectively, are constructed in the pJB02 vector.” for “(1999)).”
as §3
10 point serial dilutions of test compounds are prepared in the appropriate range. […] The amount of product is measured by ELISA using MBP-C26swe standard. […]

[4] = system: BACE1 activity in SH-SY5YAPP695Wt cells; test: SH-SY5YAPP695Wt Whole Cell Assay (Abeta 1-40 and 1-42 ELISA); assay type: cell-based; settings: Homo sapiens, 24 hours incubation, mean±standard deviation of the mean, n=4
Procedure: as §1
The routine whole cell assay for the measurement of inhibition of BACE1 activity utilizes the human neuroblastoma cell line SH-SY5Y (ATCC Accession No. CRL2266) stably expressing a human APP695Wt cDNA. Cells are routinely used up to passage number 6 and then discarded.
SH-SY5YAPP695Wt cells are plated in 96 well tissue culture plates at 5.0×10^4 cells/well in 200 μL culture media (50% MEM/EBSS and Ham's F12, lx each sodium pyruvate, non-essential amino acids and NaHCO3 containing 10% FBS). […]
At the end of the incubation, conditioned media are analyzed for evidence of beta-secretase activity by analysis of Abeta peptides 1-40 and 1-42 by specific sandwich ELISAs. […]

T1 sequence (P56817 22-460): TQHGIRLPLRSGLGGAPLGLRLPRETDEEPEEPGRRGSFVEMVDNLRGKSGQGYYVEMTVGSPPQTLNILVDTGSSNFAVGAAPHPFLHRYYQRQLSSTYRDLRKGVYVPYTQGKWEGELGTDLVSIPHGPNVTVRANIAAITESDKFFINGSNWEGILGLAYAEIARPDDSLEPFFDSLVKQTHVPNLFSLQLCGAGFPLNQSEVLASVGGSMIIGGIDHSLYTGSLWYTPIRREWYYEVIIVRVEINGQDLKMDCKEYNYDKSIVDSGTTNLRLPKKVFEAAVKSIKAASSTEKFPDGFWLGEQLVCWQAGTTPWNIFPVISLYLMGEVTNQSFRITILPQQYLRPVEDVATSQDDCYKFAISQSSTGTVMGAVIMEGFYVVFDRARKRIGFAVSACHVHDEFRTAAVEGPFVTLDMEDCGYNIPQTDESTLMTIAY

IC50 [1]: 0.509 nM
IC50 ([3]; MBP-C125Swe substrate, ELISA detection, mean±standard deviation of the mean, n=6): 17.6 nM
ratio of BACE1 (FRET IC50 enzyme assay) to BACE2 (MBP-C125Swe cell assay) ([3]; selectivity for BACE1 over BACE2): approximately 35 fold
IC50 ([4]; read-out: IC50 for SH-SY5YAPP695Wt A-beta (1-40) ELISA): 0.157 nM
IC50 ([4]; read-out: IC50 for SH-SY5YAPP695Wt A-beta (1-42) ELISA): 0.177 nM
SMILES: CC(F)(F)[C@H]1OC[C@]2(c3cc(NC(=O)c4ccc(C#N)cn4)ccc3F)N=C(N)SC[C@H]12 [Example 1, N-[3-[(4aS,5S,7aS)-2-Amino-5-(1,1-difluoroethyl)-4,4a,5,7-tetrahydrofuro[3,4-d][1,3]thiazin-7a-yl]-4-fluoro-phenyl]-5-cyano-pyridine-2-carboxamide]
reduction of Abeta 1-x peptide levels in brain hippocampus ([2]; 0.1 mg/kg oral dose): 32%
reduction of Abeta 1-x levels in brain cortical tissue ([2]; 0.1 mg/kg): 38%
reduction of Abeta 1-x peptide levels in brain hippocampus ([2]; 0.3 mg/kg oral dose): 40%
reduction of Abeta 1-x levels in brain cortical tissue ([2]; 0.3 mg/kg): 50%
reduction of Abeta 1-x peptide levels in brain hippocampus ([2]; 1 mg/kg oral dose): 55%
reduction of Abeta 1-x levels in brain cortical tissue ([2]; 1 mg/kg): 67%
